Results: PMC12136037, “Type II kinase inhibitors that target Parkinson’s disease–associated LRRK2” (Science Advances, 2025)
Values joined by “and” are separate entries in the source; they are usually repeats but may differ in a detail not shown here. Identical values can stand only once.

Assays:
[1] = target: T1, ~100 representative kinases (Homo sapiens, UniProt Q9BRS2); assay: DSF 100 kinase selectivity screen; assay type: binding; conditions: Protein RIOK1; DSF; average of three replicates;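 note: compound tested at 20 µM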
T1 construct: Recombinant protein kinase domains with a concentration of 2 μM
T1 sequence (Q9BRS2 1-568): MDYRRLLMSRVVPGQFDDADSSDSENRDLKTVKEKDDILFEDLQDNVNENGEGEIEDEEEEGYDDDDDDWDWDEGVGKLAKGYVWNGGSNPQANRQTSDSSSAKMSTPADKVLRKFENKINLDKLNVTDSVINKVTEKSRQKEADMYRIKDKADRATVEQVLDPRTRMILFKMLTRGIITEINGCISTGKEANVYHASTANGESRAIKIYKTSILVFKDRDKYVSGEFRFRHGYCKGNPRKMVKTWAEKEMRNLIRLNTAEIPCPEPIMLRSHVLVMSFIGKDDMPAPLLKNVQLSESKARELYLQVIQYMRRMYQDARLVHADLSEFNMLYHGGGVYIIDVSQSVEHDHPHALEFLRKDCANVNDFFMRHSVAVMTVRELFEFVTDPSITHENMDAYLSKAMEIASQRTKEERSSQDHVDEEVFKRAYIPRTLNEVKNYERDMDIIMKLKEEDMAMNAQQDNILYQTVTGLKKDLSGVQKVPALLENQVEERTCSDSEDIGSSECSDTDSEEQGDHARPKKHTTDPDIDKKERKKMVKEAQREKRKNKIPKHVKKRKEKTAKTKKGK
Procedure, shortened: (§1)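 Each kinase domain, at 2 μM, is mixed with 20 μM test compound and SYPRO Orange in Hepes (20 mM, pH 7.5) with 500 mM NaCl. Temperature is then raised at 3°C/min and fluorescence-monitored unfolding yields the melting temperature change, ΔTm in degrees Celsius.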

[2] = target: T2, ~100 representative kinases (Homo sapiens, UniProt Q96KB5); assay: DSF 100 kinase selectivity screen; assay type: binding; conditions: Protein TOPK; DSF; average of three replicates;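 note: compound tested at 20 µM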
T2 construct: Recombinant protein kinase domains with a concentration of 2 μM
T2 sequence (Q96KB5 1-322): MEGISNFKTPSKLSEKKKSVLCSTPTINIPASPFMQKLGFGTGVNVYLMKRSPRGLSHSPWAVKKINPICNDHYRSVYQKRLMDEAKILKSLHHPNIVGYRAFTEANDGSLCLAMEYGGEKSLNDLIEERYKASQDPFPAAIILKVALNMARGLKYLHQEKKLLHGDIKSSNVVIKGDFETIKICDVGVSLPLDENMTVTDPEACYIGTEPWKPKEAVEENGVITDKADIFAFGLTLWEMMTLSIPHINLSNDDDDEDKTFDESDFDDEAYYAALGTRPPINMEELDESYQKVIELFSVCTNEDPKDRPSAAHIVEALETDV
Procedure, shortened: as §1

[3] = test system: LRRK2 S935 phosphorylation; assay: Western blot of LRRK2 biomarker site pS935 in transfected 293T cells; assay type: cell-based, human; conditions: for pS935 LRRK2/LRRK2 normalized to DMSO, Mean / pS935 LRRK2/LRRK2 normalized to DMSO: 4 h; for pS935 LRRK2/LRRK2 normalized to DMSO, Mean: 3 replicates; for pS935 LRRK2/LRRK2 normalized to DMSO: individual Western blots; for effect on phosphorylation of LRRK2 S935: 293T cells, MLi-2 500 nM
Procedure: For all in cell kinase assays, after 48 hours, transfected cells were treated with either DMSO (control) or the indicated inhibitors for 4 hours at 37°C and 5% CO2. Following treatments, cells were washed three times with ice cold PBS. Cells were then lysed in ice cold radioimmunoprecipitation assay (RIPA) lysis buffer [50 mM tris (pH 8.0), 150 mM NaCl, 1% Triton X-100, 0.1% SDS, 0.5% sodium deoxycholate, and 1 mM DTT] in the presence of complete mini EASYpack protease inhibitor cocktail and the PhosSTOP EASYpack phosphatase inhibitor cocktail (Roche). Resuspended and lysed cells were clarified by centrifugation at 13,000g for 15 min at 4°C. NuPAGE LDS Sample Buffer (1×) and NuPAGE Sample Reducing Agent (1×; Invitrogen) were added to the clarified supernatants, and the samples were boiled at 95°C for 5 min and spun down at 13,000g for 10 min. For Western blotting, 15 μl of sample was loaded into a NuPAGE 4 to 12% gradient bis-tris gel (Invitrogen) and run at 120 V for 75 min before transfer to polyvinylidene difluoride transfer membrane (0.45-μm pore size, Millipore) for 240 min at 80 V at 4°C. The membrane was blocked in 5% milk in 1× Tris-buffered saline (TBS) [20 mM tris (pH 8.0) and 150 mM NaCl] for 1 hour shaking at room temperature. Primary antibodies [monoclonal rabbit anti-LRRK2 (Abcam, ab133474; RRID: AB_2713963), polyclonal rabbit anti-LRRK1 (Abcam, ab228666), monoclonal rabbit anti-LRRK2 phospho-S935 (Abcam, ab133450; RRID: AB_2732035), monoclonal rabbit anti-Rab8a phospho-T72 (Abcam, ab230260; RRID: AB_2814988), monoclonal rabbit anti-Rab7 phospho-S72 (Abcam, ab302494; RRID: AB_2933985), monoclonal rabbit anti–glyceraldehyde-3-phosphate dehydrogenase (GAPDH; Cell Signalling Technology, 2118; RRID: AB_561053), and monoclonal mouse anti-GFP (Santa Cruz Biotechnology, sc-9996; RRID: AB_627695)] were diluted in 5% milk in TBS and incubated with membrane for 16 hours at 4°C. Following incubation, membranes were washed three times with 1× TBS-T [20 mM tris (pH 8.0), 150 mM NaCl, and 0.1% Tween 20] before incubation with IRDye 680RD goat anti-rabbit IgG (LI-COR, 926-68071; RRID: AB_10956166) and IRDye 800CW goat anti-mouse IgG (LI-COR, 926-32210; RRID: AB_621842) secondary antibodies in 5% milk in 1× TBS for 1 hour at room temperature. Membranes were then washed three times in 1× TBS-T before imaging on Li-COR Odyssey CLx controlled by Imaging Studio software (www.licorbio.com/image-studio, RRID:SCR_015795). Image processing and quantification were performed in ImageJ version 2.14.0 (National Institutes of Health; https://imagej.net/, RRID:SCR_003070). The signal intensity of each band was assessed using the Analyze>Gels tool. The band intensity for phosphorylated LRRK2 was measured and compared to total LRRK2 levels (run under identical conditions on a separate gel). Band intensity for phosphorylated Rab7 or Rab8a was measured and compared against total GFP-Rab7 or GFP-Rab8a (using anti-GFP antibody) and LRRK1/LRRK2 levels as appropriate. Comparative statistical analysis of phosphorylation levels was analyzed using a one-way analysis of variance (ANOVA) and corrected using Tukey’s multiple comparisons test in GraphPad Prism 10 (www.graphpad.com/, RRID:SCR_002798). (For current step-by-step protocol for LRRK transfection and Western blotting, see dx.doi.org/10.17504/protocols.io.kxygx9bozg8j/v1.)

SMILES: Cc1ccc(C(=O)Nc2ccc(CN3CCN(C)CC3)c(C(F)(F)F)c2)cc1C#Cc1c[nH]c2ncnc(N3CCOCC3)c12 [Compound 1]
- dTm [1]: 4.09 K
- dTm [2]: 2.13 K

SMILES: Cc1ccc(-n2nc(C(C)(C)C)cc2NC(=O)Nc2cccc(-c3c[nH]c4nc(Cl)nc(N5CCOCC5)c34)c2)cc1 [Compound 30]
- pS935 LRRK2/LRRK2 normalized to DMSO, Mean ([3]; 250 nM): 0.9168
- pS935 LRRK2/LRRK2 normalized to DMSO ([3]; 250 nM, listed as 277): 0.9442 and 0.8289 and 0.9773
- pS935 LRRK2/LRRK2 normalized to DMSO, Mean ([3]; 500 nM): 0.8971
- pS935 LRRK2/LRRK2 normalized to DMSO ([3]; 500 nM, listed as 277): 0.9489 and 0.8102 and 0.9321
- pS935 LRRK2/LRRK2 normalized to DMSO, Mean ([3]; 1 μM): 0.8756
- pS935 LRRK2/LRRK2 normalized to DMSO ([3]; 1 μM, listed as 277): 1.005 and 0.7529 and 0.869
- pS935 LRRK2/LRRK2 normalized to DMSO, Mean ([3]; 5 μM): 0.9338
- pS935 LRRK2/LRRK2 normalized to DMSO ([3]; 5 μM, listed as 277): 0.9369 and 0.9197 and 0.9447
- pS935 LRRK2/LRRK2 normalized to DMSO, Mean ([3]; 10 μM): 0.9235
- pS935 LRRK2/LRRK2 normalized to DMSO ([3]; 10 μM, listed as 277): 0.9197 and 0.9052 and 0.9455
- effect on phosphorylation of LRRK2 S935 [3]: none of the tested type II inhibitors (broad-spectrum kinase inhibitor Ponatinib or our top compounds RN277 and RN341) reduced the phosphorylation level at this site

SMILES: CCSc1nc(NC)c2c(-c3cccc(NC(=O)Nc4cc(C(C)(C)C)nn4-c4ccc(C)cc4)c3)c[nH]c2n1 [Compound 32]
- pS935 LRRK2/LRRK2 normalized to DMSO, Mean ([3]; 250 nM): 0.9603
- pS935 LRRK2/LRRK2 normalized to DMSO ([3]; 250 nM, listed as 341): 0.9872 and 0.9193 and 0.9743
- pS935 LRRK2/LRRK2 normalized to DMSO, Mean ([3]; 500 nM): 0.9221
- pS935 LRRK2/LRRK2 normalized to DMSO ([3]; 500 nM, listed as 341): 0.9409 and 0.8795 and 0.9459
- pS935 LRRK2/LRRK2 normalized to DMSO, Mean ([3]; 1 μM): 0.8783
- pS935 LRRK2/LRRK2 normalized to DMSO ([3]; 1 μM, listed as 341): 0.9145 and 0.9018 and 0.8186
- pS935 LRRK2/LRRK2 normalized to DMSO, Mean ([3]; 5 μM): 0.8974
- pS935 LRRK2/LRRK2 normalized to DMSO ([3]; 5 μM, listed as 341): 0.9195 and 0.9472 and 0.8255
- pS935 LRRK2/LRRK2 normalized to DMSO, Mean ([3]; 10 μM): 0.9517
- pS935 LRRK2/LRRK2 normalized to DMSO ([3]; 10 μM, listed as 341): 0.9588 and 0.9056 and 0.9906
- effect on phosphorylation of LRRK2 S935 [3]: none of the tested type II inhibitors (broad-spectrum kinase inhibitor Ponatinib or our top compounds RN277 and RN341) reduced the phosphorylation level at this site

SMILES: CCNc1nc(Nc2cc(F)c(C(=O)N3CCOCC3)cc2OC)ncc1C(F)(F)F [GNE-7915]
- dTm [1]: -0.09 K
- dTm [2]: 0.03 K

SMILES: Cc1ccc(C(=O)Nc2ccc(CN3CCN(C)CC3)c(C(F)(F)F)c2)cc1C#Cc1cnc2[nH]ncc2c1 [GZD-824, reference compound]
- dTm [1]: 2.49 K
- dTm [2]: 4.33 K

SMILES: C[C@@H]1CN(c2cc(-c3n[nH]c4ccc(OC5(C)CC5)cc34)ncn2)C[C@H](C)O1 [MLi2]
- dTm [1]: -1.66 K
- dTm [2]: 0.0743 K

SMILES: Cn1cc(-c2c[nH]c3ncnc(N4CCOCC4)c23)cc1C#N [PFE-360]
- dTm [1]: -0.58 K
- dTm [2]: 0.66 K

SMILES: Cc1ccc(C(=O)Nc2ccc(CN3CCN(C)CC3)c(C(F)(F)F)c2)cc1C#Cc1cnc2cccnn12 [Ponatinib, reference compound]
- pS935 LRRK2/LRRK2 normalized to DMSO, Mean ([3]; 5 μM): 0.91
- pS935 LRRK2/LRRK2 normalized to DMSO ([3]; 5 μM): 0.7959 and 0.8749 and 1.059
- effect on phosphorylation of LRRK2 S935 [3]: none of the tested type II inhibitors (broad-spectrum kinase inhibitor Ponatinib or our top compounds RN277 and RN341) reduced the phosphorylation level at this site
- dTm [1]: 1.86 K
- dTm [2]: 2.32 K
